Results on 22 molecules are retold here after patent US7550431B2, “Spatially-defined macrocycles incorporating peptide bond surrogates” (Tranzyme Pharma Inc., priority 2003, dated 2009).

The Ki is the dissociation constant of the complex between target and ligand, obtained from inhibition or displacement.

Each structure is given as a SMILES string.

T2 sequence (Q92847 whole entry): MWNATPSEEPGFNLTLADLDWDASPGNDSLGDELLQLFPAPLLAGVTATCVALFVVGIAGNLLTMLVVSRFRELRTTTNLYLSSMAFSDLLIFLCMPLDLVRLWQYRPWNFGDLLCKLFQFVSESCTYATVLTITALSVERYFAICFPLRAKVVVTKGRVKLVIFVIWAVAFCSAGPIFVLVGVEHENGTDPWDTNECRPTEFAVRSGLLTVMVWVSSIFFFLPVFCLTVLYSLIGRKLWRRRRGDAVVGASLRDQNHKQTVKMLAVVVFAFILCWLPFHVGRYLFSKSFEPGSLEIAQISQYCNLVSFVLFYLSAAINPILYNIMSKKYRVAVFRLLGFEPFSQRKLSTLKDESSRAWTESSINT

One test deals with T1, human motilin receptor (Homo sapiens, UniProt O43193).
T1 construct: purchased PerkinElmer (SignalScreen) 6110544; host or cells: CHO cells, stably transfected (membranes)
T1 sequence (O43193 whole entry): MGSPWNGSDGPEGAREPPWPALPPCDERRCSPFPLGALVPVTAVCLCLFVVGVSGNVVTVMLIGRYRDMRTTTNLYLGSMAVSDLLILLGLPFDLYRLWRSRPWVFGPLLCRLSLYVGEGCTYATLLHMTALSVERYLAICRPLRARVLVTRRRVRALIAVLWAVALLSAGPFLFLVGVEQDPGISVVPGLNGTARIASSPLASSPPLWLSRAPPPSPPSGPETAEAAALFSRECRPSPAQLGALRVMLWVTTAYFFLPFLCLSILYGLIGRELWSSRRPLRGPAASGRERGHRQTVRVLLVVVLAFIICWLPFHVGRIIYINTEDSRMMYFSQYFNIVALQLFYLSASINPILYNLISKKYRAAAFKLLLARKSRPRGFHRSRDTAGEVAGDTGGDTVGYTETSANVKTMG
As to the kind of experiment: Competitive radioligand binding assay (motilin receptor), Method B1. Conditions: [125I]-motilin competition, CHO cell membranes. The method, then:
(§1) The compounds of the present invention were evaluated for their ability to interact at the human motilin receptor and the human ghrelin receptor utilizing competitive radioligand binding assays as described in Method B1 and B2, respectively. Further characterization of the interaction can be performed utilizing the functional assays described in Methods B3 and B4 for the motilin and ghrelin receptors, respectively. All of these methods can be conducted, if so desired, in a high throughput manner to permit the simultaneous evaluation of many compounds.
Competitive Radioligand Binding Assay (Motilin Receptor)
• Membranes were prepared from CHO cells stably transfected with the human motilin receptor and utilized at a quantity of 1.5 μg/assay point. [PerkinElmer® SignalScreen® Product #6110544, Perkin Elmer, Inc., Wellesley, Mass.] • [^125I]-Motilin (PerkinElmer®, #NEX-378); final concentration: 0.04-0.06 nM • Motilin (Bachem®, #H-4385, Bachem AG Corporation, Bubendorf, Switzerland); final concentration: 1 μM • Multiscreen® Harvest plates-GF/B (Millipore®, #MAHFB1H60, Millipore Corporation, Billerica, Mass.) • Deep-well polypropylene titer plate (Beckman Coulter®, #267006, Beckman Coulter, Inc., Fullerton, Calif.) • TopSeal-A (PerkinElmer®, #6005185) • Bottom seal (Millipore®, #MATAH0P00) • MicroScint™-0 (PerkinElmer®, #6013611) • Binding Buffer: 50 mM Tris-HCl (pH 7.4), 10 mM MgCl2, 1 mM EDTA, 0.1% BSA
Assay Volumes: • 150 μl of membranes diluted in binding buffer • 10 μl of compound diluted in binding buffer • 10 μl of radioligand ([^125I]-Motilin) diluted in binding buffer
Compounds were provided frozen on dry ice at a stock concentration of 10 mM diluted in 100% DMSO and stored at −20° C. until the day of testing. On the test day, compounds were allowed to thaw at room temperature and than diluted in assay buffer according to the desired test concentrations. Under these conditions, the maximum final DMSO concentration in the assay was 0.5%.
In deep-well plates, diluted cell membranes (1.5 μg/mL) are combined with 10 μl of either binding buffer (total binding, N=5), 1 μM motilin (non-specific binding, N=3) or the appropriate concentration of test compound. The reaction is initiated by addition of 10 μl of [^125I]-motilin (final conc. 0.04-0.06 nM) to each well. Plates are sealed with TopSeal-A, vortexed gently and incubated at room temperature for 2 hours. The reaction is arrested by filtering samples through pre-soaked (0.3% polyethyleneimine, 2 h) Multiscreen® Harvest plates using a Tomtec ® Harvester (TomTec, Inc., Hamden Conn.), washed 9 times with 500 μl of cold 50 mM Tris-HCl (pH 7.4), and than plates are air-dried in a fumehood for 30 minutes. A bottom seal is applied to the plates prior to the addition of 25 μl of MicroScint™-0 to each well. Plates are than sealed with TopSeal-A and counted for 30 sec per well on a TopCount® Microplate Scintillation and Luminescence Counter (PerkinElmer®) where results are expressed as counts per minute (cpm).
Data are analyzed by GraphPad Prism® (GraphPad Software, Inc., San Diego, Calif.) using a variable slope non-linear regression analysis.
[formula] where total and non-specific binding represent the cpm obtained in the absence or presence of 1 μM motilin, respectively.
The molecule `CCC[C@@H]1NC(=O)[C@@H](C(C)C)NC(=O)[C@@H](Cc2ccc(O)cc2)NCCOc2ccccc2CCCOC1=O` [Compound 115] yielded a Ki of 1000 to 10000 nM.
On to `CCC[C@@H]1NC(=O)[C@@H](C(C)C)CC[C@@H](Cc2ccc(OC)cc2)NCCOc2ccccc2CCCNC1=O` [Compound 109], for which the Ki fell in the range of 100 to 1000 nM.
Molecule `CC(C)[C@H]1CC[C@@H](Cc2cccc(Cl)c2)NCCOc2ccccc2CCCNC(=O)[C@H](CNC(=N)N)NC1=O` [Compound 101] had a Ki of 10 to 100 nM.
Still for that read-out and setting: for `CCC[C@@H]1NC(=O)[C@@H](C(C)C)OC(=O)[C@@H](Cc2ccc(O)cc2)NCCOc2ccccc2CCCNC1=O` [Compound 119] the value was 100 to 1000 nM.
Molecule `CC(C)C[C@H]1C(=O)NCCCc2ccccc2OCCN[C@H](Cc2ccc(O)cc2)C(=O)N[C@H](C(C)C)C(=O)N1C` [Compound 116] registered a Ki of 100 to 1000 nM.
Take `CCC[C@@H]1/C=C/[C@@H](C(C)C)NC(=O)[C@@H](Cc2cccc(Cl)c2)NCCOc2ccccc2CCCNC1=O` [Compound 104]: the Ki was 1000 to 10000 nM.
`CCC[C@@H]1NC(=O)C(C(C)C)OC(=O)[C@@H](Cc2ccc(OC)cc2)NCCOc2ccccc2CCCNC1=O` (stereo partly shown) [Compound 112] displayed a Ki of 100 to 1000 nM.
`CCC[C@@H]1NC(=O)C(C(C)C)CC[C@@H](Cc2ccc(OC)cc2)NCCOc2ccccc2CCCNC1=O` (stereo partly shown) [Compound 110] gave a Ki of 1000 to 10000 nM.
`CCC[C@@H]1NC(=O)[C@@H](C(C)C)/C=C/[C@@H](Cc2ccc(OC)cc2)NCCOc2ccccc2CCCNC1=O` [Compound 105] yielded a Ki of 1000 to 10000 nM.
Consider `CCC[C@@H]1CC[C@@H](C(C)C)NC(=O)[C@@H](Cc2cccc(Cl)c2)NCCOc2ccccc2CCCNC1=O` [Compound 103], for which the Ki lay in the range of 1000 to 10000 nM.
Still for that read-out and setting: the figure for `CCC[C@@H]1NC(=O)[C@@H](C(C)C)OC(=O)[C@@H](Cc2cccc3ccccc23)NCCOc2ccccc2CCCNC1=O` [Compound 111] is 100 to 1000 nM.

A further test addresses T2, human ghrelin receptor (hGHS-R1a) (Homo sapiens, UniProt Q92847).
T2 construct: purchased PerkinElmer BioSignal RBHGHSM, lot#1887; host or cells: HEK-293 cells, stably transfected (membranes GHS-R/HEK 293)
The test can be described thus: Competitive radioligand binding assay (ghrelin receptor), Method B2. Conditions: [125I]-ghrelin competition, HEK-293 cell membranes. The method, then: as §1
Competitive Radioligand Binding Assay (Ghrelin Receptor)
The competitive binding assay at the human growth hormone secretagogue receptor (hGHS-R1a) was carried out analogously to assays described in the literature. (Bednarek M A et al. (2000), Structure-function studies on the new growth hormone-releasing peptide ghrelin: minimal sequence of ghrelin necessary for activation of growth hormone secretagogue receptor 1a; J Med Chem 43:4370-4376. Palucki B L et al. (2001), Spiro(indoline-3,4′-piperidine) growth hormone secretagogues as ghrelin mimetics; Bioorg Med Chem Lett 11:1955-1957.)
• Membranes (GHS-R/HEK 293) were prepared from HEK-293 cells stably transfected with the human ghrelin receptor (hGHS-R1a).
Compounds were provided frozen on dry ice at a stock concentration of 10 mM diluted in 100% DMSO and stored at −80° C. until the day of testing. On the test day, compounds were allowed to thaw at rt overnight and then diluted in assay buffer according to the desired test concentrations. Under these conditions, the maximal final DMSO concentration in the assay was 0.1%.
In deep-well plates, 220 μl of diluted cell membranes (final concentration: 0.71 μg/well) were combined with 40 μl of either binding buffer (total binding, N=5), 1 μM ghrelin (non-specific binding, N=3) or the appropriate concentration of test compound (N=2 for each test concentration). […] Plates were sealed with TopSeal-A, vortexed gently and incubated at rt for 30 min. The reaction was arrested by filtering samples through Multiscreen® Harvest plates (pre-soaked in 0.5% polyethyleneimine) using a Tomtec® Harvester, washed 9 times with 500 μL of cold 50 mM Tris-HCl (pH 7.4, 4° C.), and then plates were air-dried in a fumehood for 30 min. A bottom seal was applied to the plates prior to the addition of 25 μl of MicroScint™-0 to each well. Plates were than sealed with TopSeal-A and counted for 30 sec per well on a TopCount® Microplate Scintillation and Luminescence Counter (PerkinElmer®) using a count delay of 60 sec. Results were expressed as counts per minute (cpm).
Data were analyzed by GraphPad Prism® (GraphPad Software, Inc., San Diego, Calif.) using a variable slope non-linear regression analysis.
With `CN1CC(=O)N[C@H](Cc2ccccc2)C(=O)NCCCc2ccccc2OCCN[C@@H](CCCCN)C1=O` [Compound 127], the Ki fell in the range of 1000 to 10000 nM.
Turning to `CCC(C)[C@@H]1NCCOc2ccccc2CCCNC(=O)[C@@H](Cc2ccccc2)NC(=O)[C@@H](C(C)CC)N(C)C1=O` (stereo partly shown) [Compound 136], the Ki lay within 1000 to 10000 nM.
Regarding `CCC[C@@H]1NCc2cccc(c2)CNC(=O)[C@@H](Cc2ccccc2)NC(=O)CN(C)C1=O` [Compound 158], the Ki was in the range of 1000 to 10000 nM.
The same measure, in the same setting: the figure for `CCC(C)[C@@H]1NCCOc2ccccc2CCCNC(=O)[C@@H](Cc2ccccc2)NC(=O)[C@H](C(C)C)N(C)C1=O` (stereo partly shown) [Compound 131] is 100 to 1000 nM; for `CN1CC(=O)N[C@H](Cc2ccccc2)C(=O)NCCCc2ccccc2OCCN[C@@H](Cc2ccccc2)C1=O` [Compound 128] it is 100 to 1000 nM.
In turn, `C[C@@H]1C(=O)N[C@H](Cc2ccc(F)cc2)C(=O)NCCOc2cccc(c2)OCCN[C@@H](C2CC2)C(=O)N1C` [Compound 149] returned a Ki of 100 to 1000 nM.
Still for that read-out and setting: for `C[C@@H]1NCCOc2ccccc2CCCNC(=O)[C@@H](Cc2ccccc2)NC(=O)CN(C)C1=O` [Compound 124] the value was 1000 to 10000 nM; for `CCC(C)[C@@H]1NCCOc2ccccc2CCCNC(=O)[C@@H](Cc2ccccc2)NC(=O)[C@H](C(C)CC)N(C)C1=O` (stereo partly shown) [Compound 138], 100 to 1000 nM.
In turn, `CCC(C)[C@@H]1NCCOc2ccccc2/C=C/CNC(=O)N(Cc2ccccc2)NC(=O)[C@@H](C)N(C)C1=O` (stereo partly shown) [Compound 165] had a Ki of 10 to 100 nM.
On the same count and under the same terms, for `C[C@@H]1C(=O)N[C@H](Cc2ccc(F)cc2)C(=O)NCCOCCOCCN[C@@H](C2CC2)C(=O)N1C` [Compound 140] the value was 1000 to 10000 nM; for `CCC[C@H]1C(=O)N(C)[C@H](C)C(=O)N[C@H](Cc2ccccc2)C(=O)NCCCc2ccccc2OCCN1C` [Compound 167], 100 to 1000 nM.
